Experimental data reported in US12545639B2, “3-substituted phenylamidine compounds, preparation and use thereof” (PI INDUSTRIES LTD., priority 2019, dated 2026).

Assays:
Alternaria solani = Alternaria solani (early blight of tomato/potato) in vitro test, radial growth on potato dextrose agar; format: cell-based; settings: 168 h, 300 ppm in potato dextrose agar, 25° C., 60% relative humidity, seven days, read-out: control compared to the untreated check (radial growth)
Pyricularia oryzae = assay: microbe, parasite or virus in culture; format: cell-based; settings: 168 h, read-out: control compared to the untreated check (radial growth)
Colletotrichum capsici = Colletotrichum capsici (anthracnose) in vitro test, radial growth on potato dextrose agar; format: cell-based; settings: Colletotrichum truncatum, 168 h; 300 ppm in potato dextrose agar; 25° C., 60% relative humidity, seven days; read-out: control compared to the untreated check (radial growth)
Botrytis cinerea = Botrytis cinerea (gray mold) in vitro test, radial growth on potato dextrose agar; format: cell-based; settings: 168 h, 300 ppm in potato dextrose agar, 22° C., 90% relative humidity, seven days, read-out: control compared to the untreated check (radial growth)
Phakopsora pachyrhizi = Phakopsora pachyrhizi test in soybean, preventive, in vivo on plants; settings: in Glycine max, read-out: Efficacy (% control), disease severity compared to the untreated check
Rhizoctonia solani = Rhizoctonia solani (rice sheath blight/potato black scurf) in vitro test, radial growth on potato dextrose agar; format: cell-based; settings: 168 h, 300 ppm in potato dextrose agar, 25° C., 60% relative humidity, seven days, read-out: control compared to the untreated check (radial growth)

CCN(C)C=Nc1cc(C)cc(N(C)c2cccc(F)c2)c1Cl [Compound 40, N′-(2-chloro-3-((3-fluorophenyl)(methyl)amino)-5-methylphenyl)-N-ethyl-N-methylformimidamide]
≥ 70%: inhibition of growth at 300 ppm (Alternaria solani) | inhibition of growth at 300 ppm (Pyricularia oryzae) | inhibition of growth at 300 ppm (Colletotrichum capsici) | inhibition of growth at 300 ppm (Botrytis cinerea) | pest or weed control at 500 ppm (Phakopsora pachyrhizi)

CCN(C)C=Nc1cc(C)cc(Cc2cc(F)c(OC)c(F)c2)c1Cl [Compound 71, N′-(2-chloro-3-(3,5-difluoro-4-methoxybenzyl)-5-methylphenyl)-N-ethyl-N-methylformimidamide]
≥ 70%: inhibition of growth at 300 ppm (Alternaria solani) | inhibition of growth at 300 ppm (Pyricularia oryzae) | inhibition of growth at 300 ppm (Rhizoctonia solani) | inhibition of growth at 300 ppm (Colletotrichum capsici) | inhibition of growth at 300 ppm (Botrytis cinerea) | pest or weed control at 500 ppm (Phakopsora pachyrhizi)

CCN(C)C=Nc1cc(F)cc(Cc2ccc(Cl)cc2)c1C [Compound 172, N′-(3-(4-chlorobenzyl)-5-fluoro-2-methylphenyl)-N-ethyl-N-methylformimidamide]
≥ 70%: inhibition of growth at 300 ppm (Alternaria solani) | inhibition of growth at 300 ppm (Pyricularia oryzae) | inhibition of growth at 300 ppm (Rhizoctonia solani) | inhibition of growth at 300 ppm (Colletotrichum capsici) | inhibition of growth at 300 ppm (Botrytis cinerea)

CCN(C)C=Nc1cc(C)cc(Nc2ccc(OC)c(F)c2)c1Cl [Compound 255, N′-(2-chloro-3-((3-fluoro-4-methoxyphenyl)amino)-5-methylphenyl)-N-ethyl-N-methylformimidamide]
≥ 70%: inhibition of growth at 300 ppm (Alternaria solani) | inhibition of growth at 300 ppm (Pyricularia oryzae) | inhibition of growth at 300 ppm (Rhizoctonia solani) | inhibition of growth at 300 ppm (Colletotrichum capsici) | pest or weed control at 500 ppm (Phakopsora pachyrhizi)

CCN(C)C=Nc1cc(C)cc(Cc2ccccc2C(F)(F)F)c1Cl [Compound 21, N′-(2-chloro-5-methyl-3-(2-(trifluoromethyl)benzyl)phenyl)-N-ethyl-N-methylformimidamide]
≥ 70%: inhibition of growth at 300 ppm (Alternaria solani) | inhibition of growth at 300 ppm (Pyricularia oryzae) | inhibition of growth at 300 ppm (Rhizoctonia solani) | inhibition of growth at 300 ppm (Colletotrichum capsici) | inhibition of growth at 300 ppm (Botrytis cinerea) | pest or weed control at 500 ppm (Phakopsora pachyrhizi)

CCN(C)C=Nc1cc(C)cc(Cc2ccc(F)cc2C)c1Cl [Compound 65, N′-(2-chloro-3-(4-fluoro-2-methylbenzyl)-5-methylphenyl)-N-ethyl-N-methylformimidamide]
≥ 70%: inhibition of growth at 300 ppm (Alternaria solani) | inhibition of growth at 300 ppm (Pyricularia oryzae) | inhibition of growth at 300 ppm (Rhizoctonia solani) | inhibition of growth at 300 ppm (Colletotrichum capsici) | inhibition of growth at 300 ppm (Botrytis cinerea) | pest or weed control at 500 ppm (Phakopsora pachyrhizi)

CCN(C)C=Nc1cc(C)cc(Cc2ccccc2Br)c1Cl [Compound 45, N′-(3-(2-bromobenzyl)-2-chloro-5-methylphenyl)-N-ethyl-N-methylformimidamide]
≥ 70%: inhibition of growth at 300 ppm (Alternaria solani) | inhibition of growth at 300 ppm (Pyricularia oryzae) | inhibition of growth at 300 ppm (Rhizoctonia solani) | inhibition of growth at 300 ppm (Colletotrichum capsici) | inhibition of growth at 300 ppm (Botrytis cinerea) | pest or weed control at 500 ppm (Phakopsora pachyrhizi)

CCN(C)C=Nc1cc(C)cc(N(C)c2ccccc2F)c1C [Compound 7, N-ethyl-N′-(3-((2-fluorophenyl)(methyl)amino)-2,5-dimethylphenyl)-N-methylformimidamide]
≥ 70%: inhibition of growth at 300 ppm (Alternaria solani) | inhibition of growth at 300 ppm (Pyricularia oryzae) | inhibition of growth at 300 ppm (Rhizoctonia solani) | inhibition of growth at 300 ppm (Colletotrichum capsici)

CCN(C)C=Nc1cc(F)cc(N(C)c2cccc(OC)c2)c1C [Compound 39, N-ethyl-N′-(5-fluoro-3-((3-methoxyphenyl)(methyl)amino)-2-methylphenyl)-N-methylformimidamide]
≥ 70%: inhibition of growth at 300 ppm (Alternaria solani) | inhibition of growth at 300 ppm (Pyricularia oryzae) | inhibition of growth at 300 ppm (Colletotrichum capsici) | pest or weed control at 500 ppm (Phakopsora pachyrhizi)

CCN(C)C=Nc1cc(C)cc(Nc2ccc(OC)cc2)c1Cl [Compound 61, N′-(2-chloro-3-((4-methoxyphenyl)amino)-5-methylphenyl)-N-ethyl-N-methylformimidamide]
≥ 70%: inhibition of growth at 300 ppm (Alternaria solani) | inhibition of growth at 300 ppm (Pyricularia oryzae) | inhibition of growth at 300 ppm (Rhizoctonia solani) | inhibition of growth at 300 ppm (Colletotrichum capsici)

CCN(C)C=Nc1cc(F)cc(Nc2ccc(OC)c(F)c2)c1C [Compound 254, N-ethyl-N′-(5-fluoro-3-((3-fluoro-4-methoxyphenyl)amino)-2-methylphenyl)-N-methylformimidamide]
≥ 70%: inhibition of growth at 300 ppm (Alternaria solani) | inhibition of growth at 300 ppm (Pyricularia oryzae) | inhibition of growth at 300 ppm (Rhizoctonia solani) | inhibition of growth at 300 ppm (Colletotrichum capsici)

CCN(C)C=Nc1cc(C)cc(Cc2cccc(Cl)c2)c1Cl [Compound 27, N′-(2-chloro-3-(3-chlorobenzyl)-5-methylphenyl)-N-ethyl-N-methylformimidamide]
≥ 70%: inhibition of growth at 300 ppm (Alternaria solani) | inhibition of growth at 300 ppm (Rhizoctonia solani) | inhibition of growth at 300 ppm (Colletotrichum capsici) | inhibition of growth at 300 ppm (Botrytis cinerea)

CCN(C)C=Nc1cc(C)cc(Nc2ccc(F)cc2F)c1Cl [Compound 75, N′-(2-chloro-3-((2,4-difluorophenyl)amino)-5-methylphenyl)-N-ethyl-N-methylformimidamide]
≥ 70%: inhibition of growth at 300 ppm (Alternaria solani) | inhibition of growth at 300 ppm (Pyricularia oryzae) | inhibition of growth at 300 ppm (Rhizoctonia solani) | inhibition of growth at 300 ppm (Colletotrichum capsici)

CCN(C)C=Nc1cc(Cl)cc(Cc2ccccc2C(F)(F)F)c1C [Compound 244, N′-(5-chloro-2-methyl-3-(2-(trifluoromethyl)benzyl)phenyl)-N-ethyl-N-methylformimidamide]
≥ 70%: inhibition of growth at 300 ppm (Alternaria solani) | inhibition of growth at 300 ppm (Pyricularia oryzae) | inhibition of growth at 300 ppm (Rhizoctonia solani) | inhibition of growth at 300 ppm (Colletotrichum capsici) | inhibition of growth at 300 ppm (Botrytis cinerea)

CCN(C)C=Nc1cc(F)cc(Nc2ccc3ncsc3c2)c1C [Compound 225, N′-(3-(benzo[d]thiazol-6-ylamino)-5-fluoro-2-methylphenyl)-N-ethyl-N-methylformimidamide]
≥ 70%: inhibition of growth at 300 ppm (Alternaria solani) | inhibition of growth at 300 ppm (Pyricularia oryzae) | inhibition of growth at 300 ppm (Colletotrichum capsici)

CCN(C)C=Nc1cc(C)cc(N(C)c2ccc(Cl)cc2)c1Cl [Compound 62, N′-(2-chloro-3-((4-chlorophenyl)(methyl)amino)-5-methylphenyl)-N-ethyl-N-methylformimidamide]
≥ 70%: inhibition of growth at 300 ppm (Alternaria solani) | inhibition of growth at 300 ppm (Colletotrichum capsici) | inhibition of growth at 300 ppm (Botrytis cinerea)

CCN(C)C=Nc1cc(C)cc(N(C)c2ccc(Cl)cc2F)c1Cl [Compound 156, N′-(2-chloro-3-((4-chloro-2-fluorophenyl)(methyl)amino)-5-methylphenyl)-N-ethyl-N-methylformimidamide]
≥ 70%: inhibition of growth at 300 ppm (Alternaria solani) | inhibition of growth at 300 ppm (Colletotrichum capsici) | pest or weed control at 500 ppm (Phakopsora pachyrhizi)

CCN(C)C=Nc1cc(C)cc(N(C)c2cccc(Cl)c2)c1Cl [Compound 41, N′-(2-chloro-3-((3-chlorophenyl)(methyl)amino)-5-methylphenyl)-N-ethyl-N-methylformimidamide]
≥ 70%: inhibition of growth at 300 ppm (Alternaria solani) | inhibition of growth at 300 ppm (Pyricularia oryzae) | inhibition of growth at 300 ppm (Colletotrichum capsici) | inhibition of growth at 300 ppm (Botrytis cinerea) | pest or weed control at 500 ppm (Phakopsora pachyrhizi)

CCN(C)C=Nc1cc(Cl)cc(Cc2cccc(Br)c2)c1C [Compound 245, N′-(3-(3-bromobenzyl)-5-chloro-2-methylphenyl)-N-ethyl-N-methylformimidamide]
≥ 70%: inhibition of growth at 300 ppm (Alternaria solani) | inhibition of growth at 300 ppm (Pyricularia oryzae) | inhibition of growth at 300 ppm (Rhizoctonia solani) | inhibition of growth at 300 ppm (Colletotrichum capsici) | inhibition of growth at 300 ppm (Botrytis cinerea)

CCN(C)C=Nc1cc(F)cc(Cc2ccc(C)cc2)c1C [Compound 171, N-ethyl-N′-(5-fluoro-2-methyl-3-(4-methylbenzyl)phenyl)-N-methylformimidamide]
≥ 70%: inhibition of growth at 300 ppm (Alternaria solani) | inhibition of growth at 300 ppm (Pyricularia oryzae) | inhibition of growth at 300 ppm (Rhizoctonia solani) | inhibition of growth at 300 ppm (Colletotrichum capsici) | inhibition of growth at 300 ppm (Botrytis cinerea)

CCN(C)C=Nc1cc(C)cc(Cc2cccc(C#N)c2)c1Cl [Compound 48, N′-(2-chloro-3-(3-cyanobenzyl)-5-methylphenyl)-N-ethyl-N-methylformimidamide]
≥ 70%: inhibition of growth at 300 ppm (Alternaria solani) | inhibition of growth at 300 ppm (Pyricularia oryzae) | inhibition of growth at 300 ppm (Rhizoctonia solani) | inhibition of growth at 300 ppm (Colletotrichum capsici)
